Measurements: article PMC2691177 (Biochemical Journal, 2009)

Biological target: human lysosomal HexA/HexB
Assay type: biochemical
Details: read-out: Hex A/B, Ki

SMILES: CC(=O)N[C@H]1/C(=N/OC(=O)Nc2ccccc2)O[C@H](CO)[C@@H](O)[C@@H]1O [PUGNAc, O-(2-acetamido-2-deoxy-D-glucopyranosylidene)amino N-phenylcarbamate]
- Ki: 25 ± 2.5 nM
